Assay results from patent US9803002B2, “Anti-wall teichoic antibodies and conjugates” (Genentech, Inc., priority 2013, dated 2017).
≈ marks a conversion by molar mass, not a printed value. Like-named read-outs stand apart in the source and are kept apart here. The star is where a group is joined. Propanoyl(3-maleimido) = O=C1C=CC(=O)N1CCC(=O)*

Experiments:
[1] = test system: MRSA (NRS384 strain of USA300); assay: MIC determinations for intracellular bacteria inside mouse peritoneal macrophages; assay type: cell-based, Staphylococcus aureus; settings: for MIC: Staphylococcus aureus, read-out: Intracellular MRSA MIC
[2] = clinically achievable serum levels; cited from earlier work
[3] = test system: MRSA (NRS384 strain of USA300); assay: MIC determinations for extracellular bacteria; settings: Staphylococcus aureus, read-out: Extracellular MRSA MIC
Experimental: Dilutions of the antibiotic were made in quadruplicate in 96 well culture dishes. MRSA (NRS384 strain of USA300) was taken from an exponentially growing culture and diluted to 1×10^4 CFU/mL. Bacteria was cultured in the presence of antibiotic for 18-24 hours with shaking at 37° C. and bacterial growth was determined by reading the Optical Density (OD) at 630 nM. The MIC was determined to be the dose of antibiotic that inhibited bacterial growth by >90%.

staphopain A = target: T1, staphopain A (Staphylococcus aureus, UniProt P81297); assay type: biochemical; settings: for Percent cleavage pH 7.2, Staphopain A: PBS pH 7.2, 2 hours at 37° C.; for Percent cleavage pH 7.2, Staphopain A / Cleavage product, Staphopain A: LC-MS
T1 sequence (P81297 215-388): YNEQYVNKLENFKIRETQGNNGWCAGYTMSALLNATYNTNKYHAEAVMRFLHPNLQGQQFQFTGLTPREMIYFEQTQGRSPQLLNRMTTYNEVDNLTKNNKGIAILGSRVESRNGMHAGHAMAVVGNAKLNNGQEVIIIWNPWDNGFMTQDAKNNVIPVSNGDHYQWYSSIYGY
Experimental: Fractions from each chromatography step were analyzed for activity, and 100 ul was used regardless of protein concentration. Samples were incubated overnight at 37° C. and subsequently analyzed by LC-MS to identify fractions where protease cleavage of the linker-antibiotic had occurred. Pooled active fractions from the Q Sepharose FF chromatography were measured to have a total protein concentration of 14 mg/ml. 200 μg of the pool was diluted to 2 mg/ml in PBS and was incubated with and without N-ethylmaleimide (NEM, Sigma) at a concentration of 0.1 mM final. Samples were incubated at room temperature for 1 hour. […] At 2 hours, samples were analyzed by LC-MS to identify whether protease cleavage of the linker-antibiotic had occurred. About 50 ul of the active fractions from SEC were incubated with 0.1 mM Alexa Fluor 488 C5 maleimide (Invitrogen) for 1 hour regardless of protein concentration for labeling. Cleavage assays with purified proteases were performed by incubating 5 uM of the thioFAB conjugate with 50 nM protease in a final volume of 100 ul. Assays were either performed in PBS pH 7.2, 4 mM L-Cys, 2.5 mM EDTA or 100 mM Sodium Citrate pH 5, 100 mM NaCl, 4 mM L-Cys, 2.5 mM EDTA. Samples were incubated for 2 hours at 37° C. At 2 hours, cleavage reactions were quenched by diluting 1:1 with 1% TFA. Samples were subsequently run on LC-MS to determine percent linker cleavage. Percent cleavage was determined by integrating the A280 chromatograms of the cleaved and intact species.
(§2) 5 μM of thioFAB 4497 MP-LAFGA-QSY7(“core peptide” disclosed as SEQ ID NO: 135) and thioFAB 4497 MP-LAFAA-QSY7 (“core peptide” disclosed as SEQ ID NO: 136) (FIG. 30) were incubated with 50 nM of protease in PBS pH 7.2, 4 mM L-Cys, 2.5 mM EDTA for 2 hours at 37° C. At 2 hours, cleavage reactions were quenched by diluting 1:1 with 1% TFA. Samples were subsequently run on LC-MS to determine percent linker cleavage.
5 μM of AAC-193 was incubated with 50 nM of protease in either PBS pH 7.2, 4 mM L-Cys, 2.5 mM EDTA or 100 mM Sodium Citrate pH 5, 100 mM NaCl, 4 mM L-Cys, 2.5 mM EDTA for 2 hours at 37° C. At 2 hours, cleavage reactions were quenched by diluting 1:1 with 1% TFA. Samples were subsequently run on LC-MS to determine percent linker cleavage.

staphopain B = target: T2, staphopain B (Staphylococcus aureus, UniProt P0C1S6); assay type: biochemical; settings: for Percent cleavage pH 7.2, Staphopain B: PBS pH 7.2, 2 hours at 37° C.; for Percent cleavage pH 7.2, Staphopain B / Cleavage product, Staphopain B: LC-MS
T2 construct: purchased Sigma-Aldrich S3951
T2 sequence (P0C1S6 220-393): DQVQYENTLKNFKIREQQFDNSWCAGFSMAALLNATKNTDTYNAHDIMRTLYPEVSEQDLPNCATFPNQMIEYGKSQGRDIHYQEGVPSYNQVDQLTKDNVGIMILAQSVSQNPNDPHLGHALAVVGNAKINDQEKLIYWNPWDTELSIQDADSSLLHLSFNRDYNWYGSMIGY
Experimental: Cleavage assays with purified proteases were performed by incubating 5 uM of the thioFAB conjugate with 50 nM protease in a final volume of 100 ul. Assays were either performed in PBS pH 7.2, 4 mM L-Cys, 2.5 mM EDTA or 100 mM Sodium Citrate pH 5, 100 mM NaCl, 4 mM L-Cys, 2.5 mM EDTA. Samples were incubated for 2 hours at 37° C. At 2 hours, cleavage reactions were quenched by diluting 1:1 with 1% TFA. Samples were subsequently run on LC-MS to determine percent linker cleavage. Percent cleavage was determined by integrating the A280 chromatograms of the cleaved and intact species. The antibiotic or chromophore moieties added on the C-terminus of the linkers add significant hydrophobicity, such that thioFAB with intact linkers and thioFAB with cleaved linkers are baseline resolved.
At 2 hours, cleavage reactions were quenched by diluting 1:1 with 1% TFA. Samples were subsequently run on LC-MS to determine percent linker cleavage.

human cathepsin B = human cathepsin B (Homo sapiens, UniProt P07858); assay: Linker cleavage assay with purified protease; assay type: biochemical; settings: for Percent cleavage pH 7.2, Cathepsin B: PBS pH 7.2, 2 hours at 37° C.; for Percent cleavage pH 7.2, Cathepsin B / Cleavage product, Cathepsin B: LC-MS
Experimental: The experimental mal-peptide-QSY7 linkers were conjugated to THIOFAB S4497 to evaluate the cleavability of these linkers.
Fractions from each chromatography step were analyzed for activity, and 100 ul was used regardless of protein concentration. Samples were incubated overnight at 37° C. and subsequently analyzed by LC-MS to identify fractions where protease cleavage of the linker-antibiotic had occurred. Pooled active fractions from the Q Sepharose FF chromatography were measured to have a total protein concentration of 14 mg/ml. 200 μg of the pool was diluted to 2 mg/ml in PBS and was incubated with and without N-ethylmaleimide (NEM, Sigma) at a concentration of 0.1 mM final. Samples were incubated at room temperature for 1 hour. […] At 2 hours, samples were analyzed by LC-MS to identify whether protease cleavage of the linker-antibiotic had occurred. About 50 ul of the active fractions from SEC were incubated with 0.1 mM Alexa Fluor 488 C5 maleimide (Invitrogen) for 1 hour regardless of protein concentration for labeling. Cleavage assays with purified proteases were performed by incubating 5 uM of the thioFAB conjugate with 50 nM protease in a final volume of 100 ul. Assays were either performed in PBS pH 7.2, 4 mM L-Cys, 2.5 mM EDTA or 100 mM Sodium Citrate pH 5, 100 mM NaCl, 4 mM L-Cys, 2.5 mM EDTA. Samples were incubated for 2 hours at 37° C. At 2 hours, cleavage reactions were quenched by diluting 1:1 with 1% TFA. Samples were subsequently run on LC-MS to determine percent linker cleavage. Percent cleavage was determined by integrating the A280 chromatograms of the cleaved and intact species. The antibiotic or chromophore moieties added on the C-terminus of the linkers add significant hydrophobicity, such that thioFAB with intact linkers and thioFAB with cleaved linkers are baseline resolved.
as §2

MRSA [4] = settings: TSB media; vancomycin 2 and 20 μg/mL, rifampin 0.02 and 0.2 μg/mL
MRSA [5] = assay: Transfer of infection from peritoneal cells to MG63 osteoblasts in the presence of vancomycin; assay type: cell-based, Staphylococcus aureus; settings: 5 μg/mL of vancomycin
Experimental: 6-8 week old female A/J mice (JAX™ Mice, Jackson Laboratories) were infected with 1×10^8 CFU of the NRS384 strain of USA300 by peritoneal injection. […] Peritoneal cells were then washed 2× in ice cold HB buffer. […] Free MRSA from the primary infection was stored overnight at 4° C. in Phosphate Buffered Saline Solution as a control for extracellular bacteria that were not subject to neutrophil killing.
Osteoblasts were plated in 24 well tissue culture plates and cultured to obtain a confluent layer. On the day of the experiment, the osteoblasts were washed once in RPMI (without supplements). MRSA or infected peritoneal cells were diluted in complete RPMI-10 and vancomycin was added at 5 μg/mL immediately prior to infection. Peritoneal cells were added to the osteoblasts at 1×10^6 peritoneal cells/mL. A sample of the cells was lysed with 0.1% triton-x to determine the actual concentration of live intracellular bacteria at the time of infection.
To generate a pool of intracellular S. aureus, A/J mice were infected with MRSA and infected peritoneal cells were taken 1 day post infection. […] The total number of surviving intracellular bacteria in each well was determined by plating cell lysates on agar plates. […]

MRSA (USA300) = assay: Intravenous infection model in CB17.SCID mice reconstituted with human IgG; assay type: in vivo, mouse
Experimental: To confirm that the AAC would be effective in the presence of competing human antibodies in vivo, the in vivo infection model was modified to generate mice that express normal levels of human IgG in the serum. […] Four days after infection the bacterial load in the kidneys (FIG. 10C) was assessed.
Efficacy of the AAC was compared with that of treatment with vancomycin, the current standard of care treatment for MRSA infections. […] CB17.SCID mice were reconstituted with human IgG using a dosing regimen optimized to yield constant levels of at least 10 mg/mL of human IgG in serum.
(§1) 7 week old female mice were used for all in vivo experiments and infections were carried out by intravenous injection into the tail vein. A/J mice (Jackson Lab) were infected with a dose of 2×10^6 CFU. […] For studies examining the role of competing human IgG (SCID IVIG model), CB17.SCID mice (Charles River Laboratories, Hollister, Calif.) were reconstituted with GammaGard S/D IGIV Immune Globulin (ASD Healthcare, Brooks Ky.) using a dosing regimen optimized to achieve constant serum levels of >10 mg/mL of human IgG. IGIV was administered with an initial intravenous dose of 30 mg per mouse followed by a second dose of 15 mg/mouse by intraperitoneal injection after 6 hours, and subsequent daily dosings of 15 mg per mouse by intraperitoneal injection for 3 consecutive days. […]

USA300 = assay: Pre-treatment in intravenous infection model in Balb/c mice; assay type: in vivo, mouse; settings: antibodies 50 mg/Kg IV 30 minutes prior to infection; vancomycin 110 mg/Kg twice daily IP; day 4
Experimental: Balb/c mice were given a single dose of vehicle control (PBS) or 50 mg/Kg of antibodies by intravenous injection 30 minutes prior to infection with 2×10^7 CFU of USA300. […] Control mice were given twice daily treatments with 110 mg/Kg of vancomycin by intraperitoneal injection (Vanco). All mice were sacrificed on day 4 post-infection, and the total number of surviving bacteria in kidneys (2 kidneys pooled) was determined by plating.
as §1, with “days. Mice were infected 4 hours after the first dose of IGIV with 2×10^7 CFU of MRSA diluted in phosphate buffered saline by intravenous injection.” for “days.”

MRSA [6] = assay: Intravenous infection model in CB17.SCID mice; assay type: in vivo, mouse; settings: 50 mg/Kg AAC or 0.5 mg/Kg antibiotic, kidneys 4 days after infection
Experimental: Mice were sacrificed 4 days after infection and the total number of surviving bacteria per mouse (2 kidneys pooled) was determined by plating.
as §1, with “days. Mice were infected 4 hours after the first dose of IGIV with 2×10^7 CFU of MRSA diluted in phosphate buffered saline by intravenous injection. Mice that received vancomycin were treated with twice daily intraperitoneal injections of 100 mg/Kg of vancomycin starting between 6 and 24 hours post infection for the duration of the study.” for “days.”

[7] = MRSA inside mouse peritoneal macrophages, antibiotics added 1 day after infection, survival assessed 24 hours later
[8] = 5 μM conjugate, 50 nM protease, Sodium Citrate pH 5, 2 hours at 37° C.
[9] = listed as MP-LAFG-piperazino-rifamycin

Molecule | MIC [1, 7] [µg/mL] | Serum Cmax [2] [ng/mL] | MIC [3] [µg/mL] | Percent cleavage pH 7.2, Staphopain A (staphopain A; 5 μM conjugate, 50 nM protease) [%] | Cleavage product, Staphopain A (staphopain A) | Percent cleavage pH 7.2, Staphopain B (staphopain B; 5 μM conjugate, 50 nM protease) [%] | Cleavage product, Staphopain B (staphopain B) | Percent cleavage pH 7.2, Cathepsin B (human cathepsin B; 5 μM conjugate, 50 nM protease) [%] | Cleavage product, Cathepsin B (human cathepsin B) | also measured
CCCCCCCCCC(=O)N[C@@H](Cc1c[nH]c2ccccc12)C(=O)N[C@H](CC(N)=O)C(=O)N[C@@H](CC(=O)O)C(=O)N[C@@H]1C(=O)NCC(=O)N[C@@H](CCCN)C(=O)N[C@@H](CC(=O)O)C(=O)N[C@H](C)C(=O)N[C@@H](CC(=O)O)C(=O)NCC(=O)N[C@H](CO)C(=O)N[C@@H]([C@H](C)CC(=O)O)C(=O)N[C@@H](CC(=O)c2ccccc2N)C(=O)O[C@@H]1C [Daptomycin] | > 100 | 80000 | 4 (≈ 2.47 µM) | – | – | – | – | – | – | –
CO[C@H]1/C=C/O[C@@]2(C)Oc3c(C)c(O)c4c(=O)c(c5oc6cc(N7CCN(C(=O)OCc8ccc(NC(=O)CNC(=O)[C@H](Cc9ccccc9)NC(=O)[C@H](C)NC(=O)[C@H](CC(C)C)NC(=O)CCN9C(=O)C=CC9=O)cc8)CC7)cc(O)c6nc-5c4c3C2=O)NC(=O)/C(C)=C\C=C\[C@H](C)[C@H](O)[C@@H](C)[C@@H](O)[C@@H](C)[C@H](OC(C)=O)[C@@H]1C [LA-104, MP-LAFG-PABC-(piperazinoBOR)] | – | – | – | 46 | piperazino- | 100 | piperazino- | 64 | Phe-Gly-piperazino-rifamycin | Percent cleavage pH 5, Staphopain A (staphopain A; [8]): 100%; Cleavage product, Staphopain A (staphopain A; [9]): free rifamycin; Percent cleavage pH 5, Staphopain B (staphopain B; [8]): 100%; Cleavage product, Staphopain B (staphopain B; [9]): free rifamycin; Percent cleavage pH 5, Cathepsin B (human cathepsin B; [8]): 100%
CC(=O)NC[C@H]1CN(c2ccc(N3CCOCC3)c(F)c2)C(=O)O1 [Linezolid] | – | 10000 | 0.3 (≈ 0.889 µM) | – | – | – | – | – | – | MIC ([1]; 24 h): > 20 µg/mL
CO[C@H]1/C=C/O[C@@]2(C)Oc3c(C)c(O)c4c(O)c(c(/C=N/N5CCN(C)CC5)c(O)c4c3C2=O)NC(=O)/C(C)=C\C=C\[C@H](C)[C@H](O)[C@@H](C)[C@@H](O)[C@@H](C)[C@H](OC(C)=O)[C@@H]1C [Rifampicin] | > 20 | 20000 | 0.004 (≈ 0.00486 µM) | – | – | – | – | – | – | bacteria remained viable during the first two hours of antibiotic treatment (MRSA [4]): 90%; loss in viable bacteria by 5 hours (MRSA [4]): 100 fold
CN[C@H](CC(C)C)C(=O)N[C@H]1C(=O)N[C@@H](CC(N)=O)C(=O)N[C@H]2C(=O)N[C@H]3C(=O)N[C@H](C(=O)N[C@H](C(=O)O)c4cc(O)cc(O)c4-c4cc3ccc4O)[C@H](O)c3ccc(c(Cl)c3)Oc3cc2cc(c3O[C@@H]2O[C@H](CO)[C@@H](O)[C@H](O)[C@H]2O[C@H]2C[C@](C)(N)[C@H](O)[C@H](C)O2)Oc2ccc(cc2Cl)[C@H]1O [Vancomycin] | > 100 | 10000 to 40000 | 1 (≈ 0.69 µM) | – | – | – | – | – | – | intracellular bacteria in MG63 wells 1 day post infection (MRSA [5]; similar dose of free (extracellular) MRSA): 375 intracellular bacteria; intracellular bacteria in MG63 wells 1 day after infection (MRSA [5]; wells infected with 3×10^4 intracellular bacteria (peritoneal cells)): 8,750 intracellular bacteria; efficacy in kidneys (FIG. 11A) (MRSA (USA300); AAC single dose 50 mg/Kg day 1, vancomycin 100 mg/Kg twice daily, day 4): failed to clear the infection; reduction of bacterial loads (MRSA (USA300); twice-daily 100 mg/Kg, treatment initiated more than 1 day post infection): about 50 fold; effect of pre-treatment on bacterial loads in kidneys (USA300): cleared the infection in all of the mice tested; bacteria remained viable during the first two hours of antibiotic treatment (MRSA [4]): 90%; loss in viable bacteria by 5 hours (MRSA [4]): 100 fold
MP-LAFAA-QSY7: maleimido-propionic-Leu-Ala-Phe-Ala-Ala linker with QSY7 as antibiotic surrogate, tested conjugated to thioFAB S4497 ({Propanoyl(3-maleimido)}-LAFAA-QSY7; also: conjugated to thioFAB S4497) | – | – | – | 23 | A-QSY7 | 100 | A-QSY7 | 100 | A-QSY7, and QSY7 | –
MP-LAFGA-QSY7: maleimido-propionic-Leu-Ala-Phe-Gly-Ala linker with QSY7 as antibiotic surrogate, tested conjugated to thioFAB S4497 ({Propanoyl(3-maleimido)}-LAFGA-QSY7; also: conjugated to thioFAB S4497) | – | – | – | 38 | A-QSY7 | 100 | A-QSY7 | 100 | A-QSY7 | –
dimethylpiperidyl benzoxazino rifamycin [dimethyl-pipBOR] | – | – | – | – | – | – | – | – | – | killing intracellular MRSA when tested as free antibiotics [1]: more potent than rifampicin; efficacy when given 1 day post infection (MRSA [6]): failed to clear the infection
piperidyl benzoxazino rifamycin [pipBOR] | – | – | – | – | – | – | – | – | – | killing intracellular MRSA when tested as free antibiotics [1]: more potent than rifampicin
